Molecular target: PDE-5 (UniProt O76074)
Assay: In vitro PDE inhibitory activity against PDE5 (batch method or scintillation proximity assay)
Type: biochemical, human or rabbit
Conditions: representative preferred compounds
From the text: The compounds of the invention are inhibitors of cyclic guanylate monophosphate (cGMP)-specific phosphodiesterase type 5 (PDE-5 inhibitors).
In particular, cGMP-specific PDE5 and cGMP-inhibited cAMP PDE3 can be obtained from human corpus cavernosum tissue, human platelets or rabbit platelets; cGMP-stimulated PDE2 was obtained from human corpus cavernosum; calcium/calmodulin (Ca/CAM)-dependent PDE1 from human cardiac ventricle; cAMP-specific PDE4 from human skeletal muscle; and photoreceptor PDE6 from bovine retina. Phosphodiesterases 7-11 can be generated from full length human recombinant clones transfected into SF9 cells.
In summary, for the scintillation proximity assay the effect of PDE inhibitors was investigated by assaying a fixed amount of enzyme in the presence of varying inhibitor concentrations and low substrate, (cGMP or cAMP in a 3:1 ratio unlabelled to [^3H]-labeled at a concentration of ˜⅓ Km or less) such that IC50≅Kl. The final assay volume was made up to 100 μl with assay buffer [20 mM Tris-HCl pH 7.4, 5 mM MgCl2, 1 mg/ml bovine serum albumin]. Reactions were initiated with enzyme, incubated for 30-60 min at 30° C. to give <30% substrate turnover and terminated with 50 μl yttrium silicate SPA beads (containing 3 mM of the respective unlabelled cyclic nucleotide for PDEs 9 and 11).

Compound	IC50
CCOCCn1nc(C(=O)NC)c2nc(N3CCN[C@H](C)C3)nc(Nc3cc(C)ccn3)c21 [Example 30, 1-(2-ethoxyethyl)-N-methyl-5-((3R)-3-methylpiperazin-1-yl)-7-(4-methylpyridin-2-yl-amino)-1H-pyrazolo[4,3-d]pyrimidine-3-carboxamide]	1.65 nM
CCNc1nc(Nc2cc(C)ccn2)c2c(n1)c(C(=O)NC)nn2CCOCC [Example 50, 1-(2-Ethoxyethyl)-5-(ethylamino)-N-methyl-7-(4-methylpyridin-2-ylamino)-1H-Pyrazolo[4,3-d]pyrimidine-3-carboxamide]	1.31 nM
CCNC(=O)c1nn(CCOCC)c2c(Nc3cc(C)ccn3)nc(N3CCN[C@H](C)C3)nc12 [Example 32]	0.73 nM
CCNc1nc(Nc2cc(C)ccn2)c2c(n1)c(C(=O)NCCOC)nn2CCOCC [Example 60, 1-(2-ethoxyethyl)-5-(ethylamino)-N-(2-methoxyethyl)-7-(4-methylpyridin-2-ylamino)-1H-pyrazolo[4,3-d]pyrimidine-3-carboxamide]	0.57 nM
CCOCCn1nc(C(=O)NC)c2nc(NCCOC)nc(Nc3cc(C)ccn3)c21 [Example 62, 1-(2-ethoxyethyl)-5-((2-methoxyethyl)amino)-N-methyl-7-(4-methylpyridin-2-ylamino)-1H-pyrazolo[4,3-d]pyrimidine-3-carboxamide]	1.88 nM
CCOCCn1nc(C(=O)NC)c2nc(N(C)[C@H]3CCN(C)C3)nc(Nc3cc(C)ccn3)c21 [Example 73, 1-(2-Ethoxyethyl)-N-methyl-5-[N-methyl-N-((3S)-1-methylpyrrolidin-3-yl)amino]-7-(4-methylpyridin-2-ylamino)-1H-pyrazolo[4,3-d]pyrimidine-3-carboxamide]	0.42 nM
CCOCCn1nc(C(=O)NC2CCNCC2)c2nc(N(C)C)nc(Nc3cc(C)ccn3)c21 [Example 18]	0.06 nM
CCOCCn1nc(C(=O)NCCOC)c2nc(NC)nc(Nc3cc(C)ccn3)c21 [Example 56, 1-(2-ethoxyethyl)-N-(2-methoxyethyl)-5-(methylamino)-7-(4-methylpyridin-2-ylamino)-1H-pyrazolo[4,3-d]pyrimidine-3-carboxamide]	1.63 nM
CCNC(=O)c1nn(CCOCC)c2c(Nc3cc(C)ccn3)nc(NCC)nc12 [Example 8, 1-(2-ethoxyethyl)-N-ethyl-5-(ethylamino)-7-(4-methylpyridin-2-ylamino)-1H-pyrazolo[4,3-d]pyrimidine-3-carboxamide]	0.333 nM
CCOCCn1nc(C(=O)N[C@H](C)C(=O)O)c2nc(N(C)C)nc(Nc3cc(C)ccn3)c21 [Example 22, (2R)-2-{[5-(dimethylamino)-1-(2-ethoxyethyl)-7-(4-methylpyridin-2-ylamino)-1H-pyrazolo[4,3-d]pyrimidine-3-carbonyl]amino}propionic acid]	0.02 nM
CCOCCn1nc(C(=O)NC)c2nc(N3CCN[C@H](C)C3)nc(NC3CCCCC3)c21 [Example 71, 7-(cyclohexylamino)-1-(2-ethoxyethyl)-N-methyl-5-((3R)-3-methylpiperazin-1-yl)-1H-pyrazolo[4,3-d]pyrimidine-3-carboxamide]	2.95 nM

The remaining lines, values ahead:

IC50	Compound
0.12 nM	CCOCCn1nc(C(=O)NC)c2nc(N(C)CCO)nc(Nc3cc(C)ccn3)c21 [Example 61]
0.4 nM	CCOCCn1nc(C(=O)NCCNC)c2nc(N(C)C)nc(Nc3cc(C)ccn3)c21 [Example 16]
0.09 nM	CCOCCn1nc(C(=O)NCCOC)c2nc(N(C)C)nc(Nc3cc(C)ccn3)c21 [Example 19, 5-(dimethylamino)-1-(2-ethoxyethyl)-N-(2-methoxyethyl)-7-(4-methylpyridin-2-yl-amino)-1H-pyrazolo[4,3-d]pyrimidine-3-carboxamide]
0.13 nM	CCOCCn1nc(C(=O)NCCO)c2nc(N(C)C)nc(Nc3cc(C)ccn3)c21 [Example 58, 5-(dimethylamino)-1-(2-ethoxyethyl)-N-(2-hydroxyethyl)-7-(4-methylpyridin-2-yl-amino)-1H-pyrazolo[4,3-d]pyrimidine-3-carboxamide]
0.04 nM	CCOCCn1nc(C(=O)NCCC(=O)O)c2nc(N(C)C)nc(Nc3cc(C)ccn3)c21 [Example 23, 3-{[5-(dimethylamino)-1-(2-ethoxyethyl)-7-(4-methylpyridin-2-ylamino)-1H-pyrazolo[4,3-d]pyrimidine-3-carbonyl]amino}propionic acid]
0.24 nM	CCOCCn1nc(C(=O)NCCN(C)C)c2nc(N(C)C)nc(Nc3cc(C)ccn3)c21 [Example 17, 5-(dimethylamino)-N-(2-(dimethylamino)ethyl)-1-(2-ethoxyethyl)-7-(4-methylpyridin-2-ylamino)-1H-pyrazolo[4,3-d]pyrimidine-3-carboxamide]
0.26 nM	CCOCCn1nc(C(=O)NC)c2nc(N(C)C)nc(Nc3cc(C)ccn3)c21 [Example 14, 5-(dimethylamino)-1-(2-ethoxyethyl)-N-methyl-7-(4-methylpyridin-2-ylamino)-1H-pyrazolo[4,3-d]pyrimidine-3-carboxamide]

Reference: patent publication US20070105877A1, “Pyrazolopyrimidines” (priority 2003, published 2007)
